One compound from publication PMC8379256, “A xanthene derivative, DS20060511, attenuates glucose intolerance by inducing skeletal muscle-specific GLUT4 translocation in mice” (Communications Biology, 2021) can be followed below.

In this assay the test system is WT and eNOSKO mice. As to the kind of experiment: Oral GTT in wild-type and eNOS-knockout mice. It counts as in vivo, mouse. The settings on record: for Blood glucose: Glucose tolerance test, Wildtype, 10 mg/kg, individual animals. Here is the method:
Fig. 7 DS20060511 treatment decreases blood glucose levels in both WT and eNOSKO mice during oral GTT and ITT. a, b Blood glucose levels during oral GTT in wild-type (WT, n = 5) and eNOS-knockout (KO, n = 5–6) mice. Mice received vehicle or DS20060511 (10 mg kg^−1) orally 15 min before the glucose administration (3.0 g kg^−1). c, d Blood glucose levels during ITT in WT (n = 4) and KO (n = 5) mice. Vehicle or DS20060511 (30 mg kg^−1) was given orally at the same time as 0.5 U kg^−1 insulin injection intraperitoneally. Values shown are means ± SEM. *P < 0.05, **P < 0.01, ***P < 0.001 vs. vehicle by the t-test.
C57BL/6 and db/db mice were purchased from CLEA Japan, Tokyo, Japan. GLUT4- knockout mice were generated at RIKEN BioResource Center, Tsukuba, Japan, according to a previously described method. eNOS-knockout mice were kindly provided by Dr. Masato Tsutsui[41],[42]. The mice were group-housed under controlled illumination (12:12 h light-dark cycle) and temperature (23 ± 2 °C) conditions and given free access to normal chow and water, unless otherwise specified. The HFD-fed obese mice were prepared by feeding C57BL/6 mice a HFD for at least 8 weeks from 6 weeks of age. […] Male mice were used for all the experiments in this study. The animal care and experimental procedures used in the study were approved by The University of Tokyo Animal Care Committee (Approval number: 27-3), and the study was carried out in accordance with the Animal Experimentation Guidelines of Daiichi Sankyo Co., Ltd (Approved number: 20000411).
Mice that had been denied access to food overnight received the indicated oral dose of DS20060511 or vehicle 15 min prior to the glucose load (1.5 g kg^−1, except for eNOS-knockout mice, which received 3.0 g kg^−1). Then, after the oral glucose load, the blood glucose levels were measured using Glutest Every in samples obtained from the tail vein at the indicated timepoints. Plasma insulin concentrations were also measured with an ELISA kit (Morinaga Institute of Biological Science, Yokohama, Japan) in blood samples collected from the tail vein at the indicated timepoints.

The structures appear in SMILES notation. “And” between values parts separate entries of the source, which are not always exact repeats. Equal values may be shown once.

For `COc1ccc2c(C)c(C(=O)O)ccc2c1C1C2=C(CC(C)(C)CC2=O)OC2=C1C(=O)CC(C)(C)C2` [DS20060511], the Blood glucose is 96 mg/dL and 111 mg/dL and 104 mg/dL and 93 mg/dL and 82 mg/dL (0 min); 260 mg/dL and 212 mg/dL and 232 mg/dL and 229 mg/dL and 231 mg/dL and 181 mg/dL (15 min); 253 mg/dL and 242 mg/dL and 215 mg/dL and 185 mg/dL and 284 mg/dL and 213 mg/dL (30 min); 212 mg/dL and 210 mg/dL and 226 mg/dL and 281 mg/dL and 196 mg/dL (60 min); 159 mg/dL and 172 mg/dL and 132 mg/dL and 150 mg/dL and 218 mg/dL and 154 mg/dL (90 min); 120 mg/dL and 128 mg/dL and 115 mg/dL and 130 mg/dL and 170 mg/dL and 127 mg/dL (120 min). In addition, the Blood glucose (-15 min) was 79 mg/dL and 94 mg/dL and 75 mg/dL and 91 mg/dL and 73 mg/dL and 81 mg/dL. For the setting “WT and eNOSKO mice, 10 mg kg−1 po”, the “blood glucose levels during oral GTT (in words)” value was “significantly decreased blood glucose levels in both the WT and eNOSKO mice”.
